Source: patent US20250345345A1, “METHODS FOR THE TREATMENT OF NEUROLOGICAL DISORDERS” (Praxis Precision Medicines, Inc., priority 2022, published 2025)

Experiments:
[1] = tested on: PTZ-evoked seizures in CD-1 male mice; assay: PTZ acute seizure model, combination of Compound 1 with Compound A (Example 2); assay type: in vivo; details: 30 minutes before PTZ 120 mg/kg s.c., n=12
Procedure: The combination of Compound 1 with Compound A for the treatment of seizures was investigated using a PTZ acute seizure model. Accordingly, the effect on PTZ-evoked seizures was evaluated for a vehicle control, Compound A alone, Compound 1 alone, and a combination of Compound 1 and Compound A.
Six-week old CD-1 male mice (25-35 g) were used in the following experiment. Study groups (n=12 for each group) were as follows: • (1) 35% 2-hydroxypropyl-beta-cyclodextrin (HPBCD), the vehicle for Compound 1 and Compound A (10 ml/kg, p.o.); • (2) Compound A (1 mg/kg, p.o.); • (3) Compound A (3 mg/kg, p.o.); • (4) Compound A (6 mg/kg, p.o.); • (5) Compound A (10 mg/kg, p.o); • (6) Compound 1 (10 mg/kg, p.o.); and • (7) Compound A (1 mg/kg, p.o.) and Compound 1 (10 mg/kg, p.o.).
In each instance, 30 minutes after administration of the vehicle or compound(s), PTZ was administered at 120 mg/kg, s.c., 10 ml/kg.
Dosing solutions were made from stock solutions of the highest dose and diluted down for the lower doses. All solutions were protected from light and made fresh daily for two experiment days. […]
Latency and total numbers of clonic/tonic seizures were recorded for 30 minutes, and latency to death was also recorded up to 30 minutes. […] The latency and number of seizures for each mouse was recorded by an individual blinded to the treatment. […]

[2] = evening versus morning administration; as disclosed in WO 2022/232104; cited from earlier work
[3] = evening versus morning dosing; Khodadoustan et al. 2017; cited from earlier work

For COC[C@@]1(O)CC[C@@]2(C)[C@@H](CC[C@@H]3[C@@H]2CC[C@]2(C)[C@@H](C(=O)Cn4ccnc4)CC[C@@H]32)C1 [Compound 1, 3α-Hydroxy-3β-methoxymethyl-21-(1′-imidazolyl)-5α-pregnan-20-one], the “seizure-free mice of the twelve mice” value ([1]; Compound 1 10 mg/kg p.o. alone, n.s. versus combination) is listed as 3, the “maximum observed plasma concentration (Cmax), evening compared to morning administration” value [2] is listed as “reduces” and the “overall drug exposure (AUCinf), evening compared to morning administration” value [2] is listed as “similar”. The “time to maximum plasma concentration (tmax), evening compared to morning administration” value [2] was “increases”.
With CCOC(F)(F)c1nnc2ccc(-c3cnc(OCC(F)(F)F)c(F)c3)cn12 [Compound A] the “seizure-free mice of the twelve mice” value ([1]; Compound A 1 mg/kg p.o. alone, p<0.01 versus combination) was “none”.
For CCOC(=O)C1=C(COCCN)NC(C)=C(C(=O)OC)C1c1ccccc1Cl (stereo not shown) [amlodipine besylate], the “Cmax, evening administration compared to morning dosing” value [3] is given as “increased” and the “Tmax, evening administration compared to morning dosing” value [3] is given as “reduced”.
